# Assay results published in ChEMBL document CHEMBL1201862, “PubChem BioAssay data set” (2004).
#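 1) Cells in 96-well plates. 2) Compound, 48 h, 5 concentrations. 3) Linear interpolation between surrounding doses. 4) Unreached endpoint = highest concentration. The concentration for 50% growth inhibition is given as GI50.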 Activity calls are given as the source filed them. No stated cut-off is given here; in the data, active = GI50 up to about 1.1 µM and inactive = higher.
# Experiments:
# Assay in all cases: growth of human tumour cells (NCI), 48 h
# 786-0 = system: 786-0
# A498 = system: A498
# A549 = system: A549
# ACHN = system: ACHN
# BT-549 = system: BT-549
# CCRF-CEM = system: CCRF-CEM
# COLO 205 = system: COLO 205
# DU-145 = system: DU-145
# EKVX = system: EKVX
# HCC 2998 = system: HCC 2998
# HCT-116 = system: HCT-116
# HL-60 = system: HL-60
# HOP-62 = system: HOP-62
# HOP-92 = system: HOP-92
# HT-29 = system: HT-29
# Hs-578T = system: Hs-578T
# IGROV-1 = system: IGROV-1
# K562 = system: K562
# KM12 = system: KM12
# LOX IMVI = system: LOX IMVI
# M14 = system: M14
# MCF7 = system: MCF7
# MDA-MB-231 = system: MDA-MB-231
# MDA-MB-435 = system: MDA-MB-435
# MDA-N = system: MDA-N
# MOLT-4 = system: MOLT-4
# Malme-3M = system: Malme-3M
# NCI-H226 = system: NCI-H226
# NCI-H23 = system: NCI-H23
# NCI-H460 = system: NCI-H460
# NCI-H522 = system: NCI-H522
# OVCAR-3 = system: OVCAR-3
# OVCAR-4 = system: OVCAR-4
# OVCAR-5 = system: OVCAR-5
# OVCAR-8 = system: OVCAR-8
# PC-3 = system: PC-3
# RPMI-8226 = system: RPMI-8226
# RXF 393 = system: RXF 393
# SF-268 = system: SF-268
# SF-295 = system: SF-295
# SF-539 = system: SF-539
# SK-MEL-28 = system: SK-MEL-28
# SK-MEL-5 = system: SK-MEL-5
# SK-OV-3 = system: SK-OV-3
# SN12C = system: SN12C
# SNB-19 = system: SNB-19
# SNB-75 = system: SNB-75
# SR = system: SR
# SW-620 = system: SW-620
# T47D = system: T47D
# TK-10 = system: TK-10
# U-251 = system: U-251
# UACC-257 = system: UACC-257
# UACC-62 = system: UACC-62
# UO-31 = system: UO-31
# CAKI-1 = system: CAKI-1
# HCT-15 = system: HCT-15
# NCI/ADR-RES = system: NCI/ADR-RES
# SK-MEL-2 = system: SK-MEL-2
smiles,measurement,setting,value
Cc1nc2ccccc2c(=O)n1NC(=O)Cc1ccccc1,GI50,786-0,> 100 µM (inactive)
same,GI50,A498,> 100 µM (inactive)
same,GI50,A549,> 100 µM (inactive)
same,GI50,ACHN,> 100 µM (inactive)
same,GI50,BT-549,> 100 µM (inactive)
same,GI50,CCRF-CEM,> 100 µM (inactive)
same,GI50,COLO 205,> 100 µM (inactive)
same,GI50,DU-145,> 100 µM (inactive)
same,GI50,EKVX,> 100 µM (inactive)
same,GI50,HCC 2998,> 100 µM (inactive)
same,GI50,HCT-116,> 100 µM (inactive)
same,GI50,HL-60,> 100 µM (inactive)
same,GI50,HOP-62,> 100 µM (inactive)
same,GI50,HOP-92,> 100 µM (inactive)
same,GI50,HT-29,> 100 µM (inactive)
same,GI50,Hs-578T,> 100 µM (inactive)
same,GI50,IGROV-1,> 100 µM (inactive)
same,GI50,K562,> 100 µM (inactive)
same,GI50,KM12,> 100 µM (inactive)
same,GI50,LOX IMVI,> 100 µM (inactive)
same,GI50,M14,> 100 µM (inactive)
same,GI50,MCF7,> 100 µM (inactive)
same,GI50,MDA-MB-231,> 100 µM (inactive)
same,GI50,MDA-MB-435,> 100 µM (inactive)
same,GI50,MDA-N,> 100 µM (inactive)
same,GI50,MOLT-4,> 100 µM (inactive)
same,GI50,Malme-3M,> 100 µM (inactive)
same,GI50,NCI-H226,> 100 µM (inactive)
same,GI50,NCI-H23,> 100 µM (inactive)
same,GI50,NCI-H460,> 100 µM (inactive)
same,GI50,NCI-H522,> 100 µM (inactive)
same,GI50,OVCAR-3,> 100 µM (inactive)
same,GI50,OVCAR-4,> 100 µM (inactive)
same,GI50,OVCAR-5,> 100 µM (inactive)
same,GI50,OVCAR-8,> 100 µM (inactive)
same,GI50,PC-3,> 100 µM (inactive)
same,GI50,RPMI-8226,> 100 µM (inactive)
same,GI50,RXF 393,> 100 µM (inactive)
same,GI50,SF-268,> 100 µM (inactive)
same,GI50,SF-295,> 100 µM (inactive)
same,GI50,SF-539,> 100 µM (inactive)
same,GI50,SK-MEL-28,> 100 µM (inactive)
same,GI50,SK-MEL-5,> 100 µM (inactive)
same,GI50,SK-OV-3,> 100 µM (inactive)
same,GI50,SN12C,> 100 µM (inactive)
same,GI50,SNB-19,> 100 µM (inactive)
same,GI50,SNB-75,31 µM (inactive)
same,GI50,SR,> 100 µM (inactive)
same,GI50,SW-620,> 100 µM (inactive)
same,GI50,T47D,> 100 µM (inactive)
same,GI50,TK-10,> 100 µM (inactive)
same,GI50,U-251,> 100 µM (inactive)
same,GI50,UACC-257,> 100 µM (inactive)
same,GI50,UACC-62,43.5 µM (inactive)
same,GI50,UO-31,> 100 µM (inactive)
CCOC(=O)c1c(NC(=O)c2ccccc2)sc2c1CCC2,GI50,786-0,> 100 µM (inactive)
same,GI50,A498,> 100 µM (inactive)
same,GI50,A549,> 100 µM (inactive)
same,GI50,ACHN,> 100 µM (inactive)
same,GI50,BT-549,> 100 µM (inactive)
same,GI50,CAKI-1,> 100 µM (inactive)
same,GI50,CCRF-CEM,> 100 µM (inactive)
same,GI50,COLO 205,> 100 µM (inactive)
same,GI50,DU-145,> 100 µM (inactive)
same,GI50,EKVX,> 100 µM (inactive)
same,GI50,HCT-116,> 100 µM (inactive)
same,GI50,HCT-15,> 100 µM
same,GI50,HL-60,> 100 µM (inactive)
same,GI50,HOP-62,> 100 µM (inactive)
same,GI50,HT-29,> 100 µM (inactive)
same,GI50,Hs-578T,> 100 µM (inactive)
same,GI50,IGROV-1,> 100 µM (inactive)
same,GI50,K562,> 100 µM (inactive)
same,GI50,KM12,> 100 µM (inactive)
same,GI50,M14,> 100 µM (inactive)
same,GI50,MCF7,> 100 µM (inactive)
same,GI50,MDA-MB-231,> 100 µM (inactive)
same,GI50,MDA-N,> 100 µM (inactive)
same,GI50,MOLT-4,> 100 µM (inactive)
same,GI50,NCI-H226,> 100 µM (inactive)
same,GI50,NCI-H23,> 100 µM (inactive)
same,GI50,NCI-H460,> 100 µM (inactive)
same,GI50,NCI/ADR-RES,> 100 µM (inactive)
same,GI50,OVCAR-3,> 100 µM (inactive)
same,GI50,OVCAR-5,> 100 µM (inactive)
same,GI50,OVCAR-8,> 100 µM (inactive)
same,GI50,PC-3,> 100 µM (inactive)
same,GI50,RPMI-8226,> 100 µM (inactive)
same,GI50,RXF 393,> 100 µM (inactive)
same,GI50,SF-268,> 100 µM (inactive)
same,GI50,SF-295,> 100 µM (inactive)
same,GI50,SF-539,> 100 µM (inactive)
same,GI50,SK-MEL-2,> 100 µM (inactive)
same,GI50,SK-MEL-5,> 100 µM (inactive)
same,GI50,SN12C,> 100 µM (inactive)
same,GI50,SNB-19,> 100 µM (inactive)
same,GI50,SNB-75,> 100 µM (inactive)
same,GI50,SR,> 100 µM (inactive)
same,GI50,T47D,> 100 µM (inactive)
same,GI50,TK-10,> 100 µM (inactive)
same,GI50,UACC-257,> 100 µM (inactive)
same,GI50,UACC-62,> 100 µM (inactive)
same,GI50,UO-31,> 100 µM (inactive)
O=C(O)C(CCc1ccccc1)N1C(=O)c2ccccc2C1=O (configuration not stated),GI50,786-0,> 100 µM (inactive)
same,GI50,A498,> 100 µM (inactive)
same,GI50,A549,> 100 µM (inactive)
same,GI50,ACHN,> 100 µM (inactive)
same,GI50,BT-549,> 100 µM (inactive)
same,GI50,CAKI-1,> 100 µM (inactive)
same,GI50,CCRF-CEM,> 100 µM (inactive)
same,GI50,COLO 205,> 100 µM (inactive)
same,GI50,DU-145,> 100 µM (inactive)
same,GI50,EKVX,> 100 µM (inactive)
same,GI50,HCT-116,> 100 µM (inactive)
same,GI50,HCT-15,> 100 µM
same,GI50,HL-60,> 100 µM (inactive)
same,GI50,HOP-62,> 100 µM (inactive)
same,GI50,HOP-92,> 100 µM (inactive)
same,GI50,HT-29,> 100 µM (inactive)
same,GI50,IGROV-1,> 100 µM (inactive)
same,GI50,K562,> 100 µM (inactive)
same,GI50,KM12,> 100 µM (inactive)
same,GI50,LOX IMVI,> 100 µM (inactive)
same,GI50,M14,> 100 µM (inactive)
same,GI50,MCF7,> 100 µM (inactive)
same,GI50,MDA-MB-231,> 100 µM (inactive)
same,GI50,MDA-MB-435,> 100 µM (inactive)
same,GI50,MDA-N,> 100 µM (inactive)
same,GI50,MOLT-4,> 100 µM (inactive)
same,GI50,NCI-H226,> 100 µM (inactive)
same,GI50,NCI-H23,> 100 µM (inactive)
same,GI50,NCI-H460,> 100 µM (inactive)
same,GI50,NCI/ADR-RES,> 100 µM (inactive)
same,GI50,OVCAR-3,> 100 µM (inactive)
same,GI50,OVCAR-4,> 100 µM (inactive)
same,GI50,OVCAR-5,> 100 µM (inactive)
same,GI50,OVCAR-8,> 100 µM (inactive)
same,GI50,PC-3,> 100 µM (inactive)
same,GI50,RPMI-8226,> 100 µM (inactive)
same,GI50,RXF 393,> 100 µM (inactive)
same,GI50,SF-295,> 100 µM (inactive)
same,GI50,SF-539,> 100 µM (inactive)
same,GI50,SK-MEL-28,> 100 µM (inactive)
same,GI50,SK-MEL-2,> 100 µM (inactive)
same,GI50,SK-MEL-5,> 100 µM (inactive)
same,GI50,SK-OV-3,> 100 µM (inactive)
same,GI50,SN12C,> 100 µM (inactive)
same,GI50,SNB-19,> 100 µM (inactive)
same,GI50,SNB-75,> 100 µM (inactive)
same,GI50,SR,> 100 µM (inactive)
same,GI50,SW-620,> 100 µM (inactive)
same,GI50,T47D,> 100 µM (inactive)
same,GI50,TK-10,> 100 µM (inactive)
same,GI50,U-251,> 100 µM (inactive)
same,GI50,UACC-257,> 100 µM (inactive)
same,GI50,UACC-62,> 100 µM (inactive)
same,GI50,UO-31,> 100 µM (inactive)
